From ChEMBL document CHEMBL4418487, “Max binders as myc modulators and uses thereof” (2017)
The source made the active and inactive calls. The rule behind the calls is not given here.

Legend:
[1] = molecular target: Protein max (Homo sapiens) (UniProt P61244); experiment: Binding affinity to Max in human P493-6 cells assessed as induction of perturbation in transcriptional programs after 45 mins; type: cell-based
[2] = Drug level in plasma (unknown origin) at 0.2 to 10 uM by serial dilution-lowest detection limit test; type: ADME, cell-free
[3] = Renal toxicity in healthy mouse assessed as induction of kidney damage at 0.364 mg/kg, po dosed daily using cyclodextrin vehicle for 7 days by H and E staining histological analysis; type: organism-based; details: in vivo, 168 h
[4] = molecular target: Protein max (Homo sapiens) (UniProt P61244); experiment: Induction of Max homodimer stabilization in human P493-6 cells assessed as increase in Max homodimer binding to DNA by electrophoretic mobility shift assay; type: cell-based
c-Myc/Max (Homo sapiens) = c-Myc/Max (Homo sapiens) (UniProt P01106+P61244); experiment: Inhibition of c-Myc/Max heterodimer interaction in human P493-6 cells by electrophoretic mobility shift assay; type: cell-based
[5] = Drug level in mouse plasma at 100 to 200 uM, po dosed using cyclodextrin vehicle by LC/MS analysis; type: ADME, organism-based; details: in vivo
[6] = molecular target: Protein max (Homo sapiens) (UniProt P61244); experiment: Binding affinity to Max in human P493-6 cells at […] incubated for 30 mins by immunoprecipitation based assay; type: cell-based
[7] = Retention time of the compound by LC/MS analysis; type: physicochemical
[8] = molecular target: Protein max (Homo sapiens) (UniProt P61244); experiment: Induction of recombinant human Max homodimer stabilization at 10 uM pre-incubated for 1 hr with protein and measured after 18 hrs
[9] = molecular target: Myc proto-oncogene protein (Homo sapiens) (UniProt P01106); experiment: Binding affinity to c-Myc in human P493-6 cells at […] incubated for 30 mins by immunoprecipitation based assay; type: cell-based
[10] = Toxicity in healthy mouse assessed as effect on liver at 0.731 mg/kg, po dosed daily using cyclodextrin vehicle for 7 days by H and E staining histological analysis; type: organism-based; details: in vivo, 168 h
[11] = molecular target: Protein max (Homo sapiens) (UniProt P61244); experiment: Binding affinity to Max in human P493-6 cells assessed as decrease in Myc transcript levels by qPCR analysis; type: cell-based
Homo sapiens [12] = experiment: Antitumor activity against Luc-labeled and MYC-driven human T-ALL 4188 cells xenografted in immune-compromised NSG mouse assessed as reduction in tumor volume at 20 uM, iv measured during 2 to 12 days after tumor implantation; type: functional, organism-based
[13] = molecular target: Protein max (Homo sapiens) (UniProt P61244); experiment: Binding affinity to Max in human P493-6 cells assessed as effect on Max interactome by measuring perturbation in Myc level at […] incubated for 30 mins by immunoprecipitation based assay; type: cell-based
[14] = Drug level in mouse plasma at 20 uM, iv by LC/MS analysis; type: ADME, organism-based; details: in vivo
[15] = Toxicity in healthy mouse assessed as effect on behavior at 0.364 mg/kg, po dosed daily using cyclodextrin vehicle for 7 days measured on each day; type: organism-based; details: in vivo, 168 h
[16] = molecular target: Protein max (Homo sapiens) (UniProt P61244); experiment: Binding affinity to Max in human P493-6 cells assessed as effect on Max interactome by measuring perturbation in Mxd4 level at […] incubated for 30 mins by immunoprecipitation based assay; type: cell-based
[17] = molecular target: Protein max (Homo sapiens) (UniProt P61244); experiment: Binding affinity to Max in human P493-6 cells assessed as decrease in Myc protein levels at 10 uM in presence of 10 uM proteasome inhibitor MG132; type: cell-based
[18] = molecular target: Protein max (Homo sapiens) (UniProt P61244); experiment: Binding affinity to Max in human P493-6 cells assessed as effect on Max interactome by measuring perturbation in Yaf2 level at […] incubated for 30 mins by immunoprecipitation based assay; type: cell-based
Homo sapiens [19] = experiment: Antitumor activity against Luc-labeled and MYC-driven human T-ALL 4188 cells xenografted in immune-compromised NSG mouse assessed as reduction in tumor volume using tumor cells pre-treated with 20 uM compound for 24 hrs; type: functional
[20] = molecular target: Protein max (Homo sapiens) (UniProt P61244); experiment: Binding affinity to Max in human P493-6 cells assessed as decrease in Myc protein levels; type: cell-based
[21] = Toxicity in healthy mouse assessed as effect on behavior at 0.731 mg/kg, po dosed daily using cyclodextrin vehicle for 7 days measured on each day; type: organism-based; details: in vivo, 168 h
[22] = Hepatic toxicity in healthy mouse assessed as induction of liver damage at 0.731 mg/kg, po dosed daily using cyclodextrin vehicle for 7 days by H and E staining histological analysis; type: organism-based; details: in vivo, 168 h
[23] = Toxicity in healthy mouse assessed as effect on body weight at 0.364 mg/kg, po dosed daily using cyclodextrin vehicle for 7 days measured on each day; type: organism-based; details: in vivo, 168 h
Homo sapiens [24] = experiment: Antitumor activity against Luc-labeled and MYC-driven human T-ALL 4188 cells xenografted in immune-compromised NSG mouse assessed as reduction in tumor volume at 10 mg/ml dosed in corn oil every other day during day 2 to 16 after tumor implantation; type: functional, organism-based
[25] = Drug level in mouse plasma at 20 uM, po by LC/MS analysis; type: ADME, organism-based; details: in vivo
[26] = Toxicity in healthy mouse assessed as effect on body weight at 0.731 mg/kg, po dosed daily using cyclodextrin vehicle for 7 days measured on each day; type: organism-based; details: in vivo, 168 h
[27] = Cytotoxicity against human P493-6 cells with where Myc is in OFF- condition assessed as reduction in cell viability incubated for 3 days by CellTiter-Glo assay; type: cell-based
[28] = Toxicity in healthy mouse assessed as effect on liver at 0.364 mg/kg, po dosed daily using cyclodextrin vehicle for 7 days by H and E staining histological analysis; type: organism-based; details: in vivo, 168 h
[29] = molecular target: Protein max (Homo sapiens) (UniProt P61244); experiment: Binding affinity to Max in human P493-6 cells assessed as effect on Max interactome by measuring perturbation in Nacc2 level at […] incubated for 30 mins by immunoprecipitation based assay; type: cell-based
[30] = molecular target: Protein max (Homo sapiens) (UniProt P61244); experiment: Binding affinity to Max in human P493-6 cells assessed as effect on Max interactome by measuring perturbation in Rcor1 level at […] incubated for 30 mins by immunoprecipitation based assay; type: cell-based
[31] = Renal toxicity in healthy mouse assessed as induction of kidney damage at 0.731 mg/kg, po dosed daily using cyclodextrin vehicle for 7 days by H and E staining histological analysis; type: organism-based; details: in vivo, 168 h
[32] = molecular target: Protein max (Homo sapiens) (UniProt P61244); experiment: Binding affinity to Max in human P493-6 cells assessed as effect on Max interactome by measuring perturbation in Atg16l1 level at […] incubated for 30 mins by immunoprecipitation based assay; type: cell-based
[33] = Cytotoxicity against human P493-6 cells with where Myc is in ON- condition assessed as reduction in cell viability incubated for 3 days by CellTiter-Glo assay; type: functional, cell-based
[34] = molecular target: Protein max (Homo sapiens) (UniProt P61244); experiment: Binding affinity to Max in human P493-6 cells using Biotin with streptavidin enrichment by Western blotting analysis based target engagement assay; type: cell-based
[35] = molecular target: Protein max (Homo sapiens) (UniProt P61244); experiment: Binding affinity to Max in human P493-6 cells at 5 to 10 uM using AlexaFluor-tagged compound by Western blotting analysis based target engagement assay; type: cell-based
[36] = molecular target: Protein max (Homo sapiens) (UniProt P61244); experiment: Binding affinity to Max in human P493-6 cells at 5 to 10 uM using AlexaFluor-tagged compound in presence of 20 uM soluble KI-MS2-008 by Western blotting analysis based target engagement assay; type: cell-based
[37] = molecular target: Myc proto-oncogene protein (Homo sapiens) (UniProt P01106); experiment: Binding affinity to MYC in human P493-6 cells using 2 mg protein by immunoblotting based pull down assay; type: cell-based
[38] = molecular target: Protein max (Homo sapiens) (UniProt P61244); experiment: Binding affinity to Max in human P493-6 cells using 2 mg protein by immunoblotting based pull down assay; type: cell-based
CA46 = experiment: Cytotoxicity against human CA46 cells assessed as reduction in cell viability incubated for 3 days by CellTiter-Glo assay; type: functional, cell-based
NCI-H1963 = experiment: Cytotoxicity against human NCI-H1963 cells assessed as reduction in cell viability incubated for 3 days by CellTiter-Glo assay; type: functional, cell-based
[39] = molecular target: Protein max (Homo sapiens) (UniProt P61244); experiment: Binding affinity to Max in human P493-6 cells using Bio-MS2 by Western blotting analysis based pull down assay; type: cell-based
ST486 = experiment: Cytotoxicity against human ST486 cells assessed as reduction in cell viability incubated for 3 days by CellTiter-Glo assay; type: functional, cell-based
Homo sapiens [40] = organism: Homo sapiens; experiment: Cytotoxicity against human GBM4 cells assessed as reduction in cell viability incubated for 4 days by CellTiter-Glo assay; type: functional, cell-based
Astrocyte = experiment: Cytotoxicity against normal human astrocytes assessed as reduction in cell viability incubated for 4 days by CellTiter-Glo assay; type: cell-based; details: 96 h

Chain of Protein max (Homo sapiens) (P61244 whole entry): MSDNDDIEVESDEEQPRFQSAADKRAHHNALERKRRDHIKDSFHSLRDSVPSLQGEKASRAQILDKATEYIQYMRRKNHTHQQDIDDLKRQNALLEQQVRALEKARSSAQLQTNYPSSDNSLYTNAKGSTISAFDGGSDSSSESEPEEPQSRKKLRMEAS
Chain of Myc proto-oncogene protein (Homo sapiens) (P01106 whole entry): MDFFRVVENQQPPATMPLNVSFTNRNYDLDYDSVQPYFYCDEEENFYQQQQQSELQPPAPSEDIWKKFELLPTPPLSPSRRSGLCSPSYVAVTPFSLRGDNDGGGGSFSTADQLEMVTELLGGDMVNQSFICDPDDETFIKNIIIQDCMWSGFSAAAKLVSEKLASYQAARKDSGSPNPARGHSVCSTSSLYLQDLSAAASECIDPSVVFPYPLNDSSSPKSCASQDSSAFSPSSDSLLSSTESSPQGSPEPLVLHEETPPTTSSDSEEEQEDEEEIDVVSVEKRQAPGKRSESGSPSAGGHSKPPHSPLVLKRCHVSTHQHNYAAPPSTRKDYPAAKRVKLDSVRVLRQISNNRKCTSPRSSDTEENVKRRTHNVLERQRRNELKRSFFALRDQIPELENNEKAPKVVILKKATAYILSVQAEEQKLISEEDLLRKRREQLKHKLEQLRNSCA

## O=C1N(CCS(=O)(=O)c2ccccc2)Cc2ccccc2[C@@H]2OC(c3ccccc3)=N[C@]12Cc1ccccc1
[1]
  Activity: Active
[2]
  Drug uptake: Active
[3]
  Activity: Non-Toxic
[4]
  Activity: Dose-dependent effect
c-Myc/Max (Homo sapiens)
  inhibition: inactive
[5]
  Drug uptake: Active
[6]
  Activity: Active
[7]
  Retention_time: 9 min
[8]
  Activity: Active
[9]
  Activity: Active
[10]
  Activity: Non-Toxic
[11]
  Activity: Active
Homo sapiens [12]
  Activity: Active
[13]
  Activity: Active
[14]
  Drug uptake: Active
[15]
  Activity: Non-Toxic
[16]
  Activity: Active
[17]
  Activity: inactive
[18]
  Activity: Active
Homo sapiens [19]
  Activity: Active
[20]
  Activity: Dose-dependent effect
[21]
  Activity: Non-Toxic
[22]
  Activity: Non-Toxic
[23]
  Activity: Non-Toxic
Homo sapiens [24]
  Activity: Active
[25]
  Drug uptake: Not Active
[26]
  Activity: Non-Toxic
[27]; Homo sapiens, P493-6, 72 h
  IC50: > 50 µM
[28]
  Activity: Non-Toxic
[29]
  Activity: Active
[30]
  Activity: Active
[31]
  Activity: Non-Toxic
[32]
  Activity: Active

## O=C1N(CCS(=O)(=O)c2ccccc2)Cc2ccccc2[C@@H]2OC(c3ccc(OCCCO)cc3)=N[C@]12Cc1ccccc1
[27]
  IC50: > 50 µM

## O=C(O)CN1Cc2ccccc2[C@@H]2OC(c3ccccc3)=N[C@]2(Cc2ccccc2)C1=O
[27]; Homo sapiens, P493-6, 72 h
  IC50: > 50 µM

## O=C(c1ccccc1)N1Cc2ccccc2[C@@H]2OC(c3ccccc3)=N[C@]2(Cc2ccccc2)C1=O
[33]; Homo sapiens, P493-6, 72 h
  IC50: > 50 µM
[27]; Homo sapiens, P493-6, 72 h
  IC50: > 50 µM

## O=C1N(CCS(=O)(=O)c2ccccc2)Cc2cc(Cl)ccc2[C@@H]2OC(c3ccccc3)=N[C@]12Cc1ccccc1
[33]; Homo sapiens, P493-6, 72 h
  IC50: 25.8 µM
[27]; Homo sapiens, P493-6, 72 h
  IC50: > 50 µM

## CCN(CC(=O)NCCNC(=O)CN1Cc2ccccc2[C@@H]2OC(c3ccccc3)=N[C@]2(Cc2ccccc2)C1=O)C(=O)CCC1(C)N=N1
[34]
  Activity: Active
[35]
  Activity: Active
[36]
  Activity: inactive

## C=CCN1Cc2ccccc2[C@@H]2OC(c3ccccc3)=N[C@]2(Cc2ccccc2)C1=O
[27]; Homo sapiens, P493-6, 72 h
  IC50: > 50 µM

## CC(=O)N1Cc2ccccc2[C@@H]2OC(c3ccccc3)=N[C@]2(Cc2ccccc2)C1=O
[33]; Homo sapiens, P493-6, 72 h
  IC50: 19.3 µM
[27]; Homo sapiens, P493-6, 72 h
  IC50: > 50 µM

## NCCOCCOCCNC(=O)CN1Cc2ccccc2[C@@H]2OC(c3ccccc3)=N[C@]2(Cc2ccccc2)C1=O
[37]
  Activity: Active
[38]
  Activity: Active

## O=C1N(CCS(=O)(=O)c2ccccc2)Cc2ccccc2[C@@H]2OC(c3ccc(OCCCO)cc3)=N[C@]12Cc1ccccc1 (racemic) [listing 1 of 2 here]
CA46
  Activity: Active
NCI-H1963
  Activity: Active
[39]
  Activity: Active
ST486
  Activity: Active
Homo sapiens [40]
  Activity: Active

## O=C1NCc2ccccc2[C@@H]2OC(c3ccccc3)=N[C@]12Cc1ccccc1
[27]; Homo sapiens, P493-6, 72 h
  IC50: > 50 µM

## CCOC(=O)CN1Cc2ccccc2[C@@H]2OC(c3ccccc3)=N[C@]2(Cc2ccccc2)C1=O
[27]; Homo sapiens, P493-6, 72 h
  IC50: > 50 µM

## O=C1N(CCS(=O)(=O)c2ccccc2)Cc2ccccc2[C@@H]2OC(c3ccc(OCCCO)cc3)=N[C@]12Cc1ccccc1 (racemic) [listing 2 of 2 here]
Astrocyte
  Activity: Non-Toxic
[33]
  IC50: 6.8 to 14.5 µM
[27]; Homo sapiens, P493-6, 72 h
  IC50: 50 to 58.1 µM
